Measurements reported in US20220267394A1, “COMPOUNDS FOR INDUCING TISSUE FORMATION AND USES THEREOF” (HISTIDE AG, priority 2015, published 2022).

What was measured:
Type in all cases: cell-based
[1] = test system: Human Mesenchymal Stem Cells (hMSCs); test: Osteogenic differentiation of human mesenchymal stem cells (Runx2/Osterix immunostaining, ALP activity); conditions: type-I collagen sponge coupled with peptide, 1 week of culture
[2] = test system: Human umbilical-vein endothelial cells; test: Angiogenesis: tube-like structure formation on PET; conditions: PET covalently modified with peptide, 18 hours
Protocol: (§1) The polymer used in this study is poly(ethylene terephthalate) (PET). The polymers were first treated in order to create —COOH (carboxyl) functions on the PET surfaces from —OH (hydroxyl) functions. Next, the PET-COOH samples were immersed in a solution of dimethylaminopropyl-3-ethylcarbodiimide hydrochloride (EDC, 0.2 M)+N-hydroxysuccinimide (NHS, 0.1 M) in 2-(N-morpholino)-ethanesulfonic acid (MES) buffer (0.1 M in MilliQ water) and the samples were rinsed in MilliQ water (50 mL for 30 min). The same protocol was used for all the polymers containing —OH (hydroxyl) functions on their extreme surface. Finally, the covalent immobilization of the peptides was achieved by using a solution of peptides/1×PBS (C=10^−3 M) incubated for 18 hours at room temperature. After grafting, the materials were rinsed in MilliQ water (100 ml) for 1 week.

[3] = test system: Neurons (Neuronal Schwann Cells); test: Neuron growth on titanium (dendrite growth, GAP43 Q-PCR); conditions: titanium covalently modified with peptide
From the text: […]

[4] = test system: mouse mesenchymal pre-osteoblastic cells (MC3T3-E1); test: Osteogenic differentiation of osteoblast progenitors (optical profilometry of extracellular matrix, Runx2 Q-PCR, Osteopontin immunostaining); conditions: apatite ceramics or type-I collagen sponge coupled with peptide vs native type-I collagen sponge, 48 hours
Protocol: The surface profiler system is a non-contact optical profiler that measures a wide range of surface heights. The vertical scanning interferometry mode allows for the measurement of rough surfaces and steps of up to several micrometers. This mode was used in order to measure the thickness of the extracellular matrix produced by the cells. First, after 24 h of culture, the cells were fixed with paraformaldehyde in PBS (4%) for 30 minutes at 4° C. and the samples were dehydrated in increasing concentrations of ethanol (30, 70, 80, 90, 95 and 100%) and critical-point dried. To evaluate the extent of the newly synthesized extracellular matrix, a spatula was used to scratch the surface of the materials. The samples were then metallized for 10 sec with gold or titanium before being analyzed.
The cells were first fixed for 20 min with 4% paraformaldehyde/PBS at 4° C. […]
Total RNA was extracted by using the RNeasy total RNA kit (Qiagen®) according to the manufacturer's instructions. […] Data were analyzed with the iCycler IQ™® software and compared by the ΔΔCt method. […]
The effect of the GFR-binding compounds as described herein (SEQ ID NO: 33) on the differentiation of osteoblast progenitors was evaluated. […]
An increase in the Runx2 gene expression after 24 hours of culture (FIG. 11) was observed by using Quantitative Real Time Polymerase Chain Reaction as described in the Methods section.

[5] = test system: Human umbilical-vein endothelial cells; test: Endothelialization: adherent junctions (CD31) of endothelial cells on PET; conditions: PET covalently modified with peptide vs native PET, 36 hours
Protocol: as §1
An increase in the area of the adherent junctions (CD31) was observed after 36 hours of culture on the covalently modified PET (FIG. 13).

Sequence: WWFWGKASSVPTELSPISTLYKDENEKVVLKYHYDMVVEGSGSR (WWFWGKASSVPTELSPISTLYKDENEKVVLKYHYDMVVEGXGXR; GFR-binding peptide; MOD_RES (41), (43): Xaa is C or S) [SEQ ID NO: 32]
- ALP (Alkaline Phosphatase) activity [1]: increase

Sequence: CVPTEESNITMQIMRIKPHQGQHIGEMSFL (GFR-binding peptide) [SEQ ID NO: 39]
- formation of tube-like structures [2]: formation of tube-like structures was observed

Sequence: CTVPKPSSAPTQLSPISILYIDAANNVVYKQYEDMVVRA (CTVPKPXXAPTQLSPISILYIDAANNVVYKQYEDMVVRA; GFR-binding peptide; MOD_RES (7), (8): Xaa is C or S) [SEQ ID NO: 49]
- establishment of cell-cell contacts via dendrite growth ([3]; 6 hours): rapid establishment
- Growth Associated Protein 43 (GAP43) gene expression (Q-PCR) ([3]; 48 hours): high level of expression

Sequence: WWFWGASSAVSQELSAISMLYLGGGLKNYQDMQHN (GFR-binding peptide) [SEQ ID NO: 33]
- production of extracellular matrix proteins such as Osteopontin (OPN) [4]: extensive amounts

Sequence: CVPTEERSVKVAKVRIKPHQGQHKEVQV (GFR-binding peptide) [SEQ ID NO: 38]
- area of the adherent junctions (CD31) [5]: increase
